The conditions of data set [1]: Crystal; DSC.
Data set [2] can be described thus: Molar enthalpy of transition or fusion. Conditions: Crystal; DSC.

The structures appear in SMILES notation. ± gives the expanded uncertainty stated by the source.

Take `c1ccc2[nH]nnc2c1` [benzotriazole]: the Triple point temperature in data set [1] came to 369.26 ± 1.2 K. Besides, the “Molar enthalpy of transition or fusion” value in data set [2] stood at 3.64 ± 0.167 kcal/mol.

Values taken from the NIST ThermoML archive (doi:10.1021/acs.jced.7b01085).
